Data as given in PubChem BioAssay AID330 (DTP/NCI, 2004).
“And” between values parts separate entries of the source, which are not always exact repeats. Identical values can stand only once. Inconclusive results and toxic doses are left out. How the source made its calls: active means survival T/C of 150% or more; inactive means T/C below 125% in these data.

Test system: P388 leukemia ip, CD2F1 mice, survival T/C
Test: NCI In Vivo Anticancer Drug Screen. Data for tumor model P388 Leukemia (intraperitoneal) in CD2F1 (CDF1) mice
Settings: endpoint: median survival time, higher = longer survival
How it was run: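 Mice carrying the transplanted tumor received test compound or vehicle. Survival was recorded in each group, and the value is the treated-group measurement divided by that of the vehicle-treated control group.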

[1] = dose: 50.0 mg/kg/injection, schedule: Q01DX005 (ip), vehicle: saline with Tween-80
[2] = dose: 100.0 mg/kg/injection, schedule: Q01DX005 (ip), vehicle: saline with Tween-80
[3] = dose: 200.0 mg/kg/injection, schedule: Q01DX005 (ip), vehicle: saline with Tween-80
[4] = dose: 60.0 mg/kg/injection, schedule: Q01DX005 (ip), vehicle: saline with Tween-80
[5] = dose: 120.0 mg/kg/injection, schedule: Q01DX005 (ip), vehicle: saline with Tween-80
[6] = dose: 240.0 mg/kg/injection, schedule: Q01DX005 (ip), vehicle: saline with Tween-80

Measured: T/C

Cc1ccccc1C(=O)N1C(=O)Cc2ccccc21
inactive: dose: 100.0 mg/kg/injection, schedule: Q01DX001 (ip), vehicle: Klucel (hydroxypropylcellulose) (HPC) 97 % of control | dose: 200.0 mg/kg/injection, schedule: Q01DX001 (ip), vehicle: Klucel (hydroxypropylcellulose) (HPC) 91 % of control | dose: 400.0 mg/kg/injection, schedule: Q01DX001 (ip), vehicle: Klucel (hydroxypropylcellulose) (HPC) 90 % of control

CC1(/C=C/Cl)CC(Cl)(CBr)C(Cl)CC1Cl (stereo unspecified)
inactive: dose: 8.75 mg/kg/injection, schedule: Q01DX005 (ip), vehicle: Klucel (hydroxypropylcellulose) (HPC) 97 % of control | dose: 17.5 mg/kg/injection, schedule: Q01DX005 (ip), vehicle: Klucel (hydroxypropylcellulose) (HPC) 91 % of control | dose: 35.0 mg/kg/injection, schedule: Q01DX005 (ip), vehicle: Klucel (hydroxypropylcellulose) (HPC) 97 % of control | dose: 70.0 mg/kg/injection, schedule: Q01DX005 (ip), vehicle: Klucel (hydroxypropylcellulose) (HPC) 91 % of control

CC(C)=CC1CC(=O)OC1(C)C (stereo unspecified)
inactive: dose: 12.5 mg/kg/injection, schedule: Q04DX002 (ip), vehicle: saline with Tween-80 98 % of control | dose: 25.0 mg/kg/injection, schedule: Q04DX002 (ip), vehicle: saline with Tween-80 104 % of control | dose: 50.0 mg/kg/injection, schedule: Q04DX002 (ip), vehicle: saline with Tween-80 100 % of control

CN(C)Cc1cn(C)c2ccccc12
inactive: dose: 12.5 mg/kg/injection, schedule: Q01DX005 (ip), vehicle: saline 99 % of control | dose: 25.0 mg/kg/injection, schedule: Q01DX005 (ip), vehicle: saline 93 % of control | dose: 50.0 mg/kg/injection, schedule: Q01DX005 (ip), vehicle: saline 98 % of control and 95 % of control

CN(C)c1ccc(N2C(N)=NC(N)=NC2(C)C)cc1
inactive: dose: 15.0 mg/kg/injection, schedule: Q01DX005 (ip), vehicle: saline 94 % of control | dose: 30.0 mg/kg/injection, schedule: Q01DX005 (ip), vehicle: saline 95 % of control | dose: 60.0 mg/kg/injection, schedule: Q01DX005 (ip), vehicle: saline 98 % of control and 95 % of control

CC(=O)N/N=C1/C=C2C/C(=N\NC(C)=O)C=C2C1
inactive: [1] 99 % of control | [2] 95 % of control | [3] 90 % of control

O=C(Nc1ncc([N+](=O)[O-])s1)C(Cl)Cl
inactive: dose: 50.0 mg/kg/injection, schedule: Q01DX009 (ip), vehicle: Klucel (hydroxypropylcellulose) (HPC) 118 % of control | dose: 100.0 mg/kg/injection, schedule: Q01DX009 (ip), vehicle: Klucel (hydroxypropylcellulose) (HPC) 111 % of control

CCCCCCCCCCCCCCN1CCOCC1
inactive: dose: 12.5 mg/kg/injection, schedule: Q01DX009 (ip), vehicle: saline 94 % of control | dose: 25.0 mg/kg/injection, schedule: Q01DX009 (ip), vehicle: saline 100 % of control | dose: 50.0 mg/kg/injection, schedule: Q01DX009 (ip), vehicle: saline 100 % of control and 98 % of control

CC(=O)c1ccccc1OCC(O)CNc1ccc(Cl)cc1C(=O)c1ccccc1 (stereo unspecified)
inactive: [4] 99 % of control and 92 % of control | [5] 92 % of control | [6] 89 % of control and 96 % of control

CC(=O)OCCCCCCCCCCCCCCCCCC1=C(C)C(=O)OC1=O
inactive: dose: 25.0 mg/kg/injection, schedule: Q01DX005 (ip), vehicle: Klucel (hydroxypropylcellulose) (HPC) 96 % of control | dose: 50.0 mg/kg/injection, schedule: Q01DX005 (ip), vehicle: Klucel (hydroxypropylcellulose) (HPC) 97 % of control | dose: 100.0 mg/kg/injection, schedule: Q01DX005 (ip), vehicle: Klucel (hydroxypropylcellulose) (HPC) 103 % of control | dose: 200.0 mg/kg/injection, schedule: Q01DX005 (ip), vehicle: Klucel (hydroxypropylcellulose) (HPC) 99 % of control | dose: 400.0 mg/kg/injection, schedule: Q01DX005 (ip), vehicle: Klucel (hydroxypropylcellulose) (HPC) 92 % of control

CC1(c2ccccc2)c2ccccc2N(c2ccccc2)C(=O)C1O (stereo unspecified)
inactive: dose: 100.0 mg/kg/injection, schedule: Q04DX003 (ip), vehicle: Klucel (hydroxypropylcellulose) (HPC) 101 % of control and 109 % of control | dose: 200.0 mg/kg/injection, schedule: Q04DX003 (ip), vehicle: Klucel (hydroxypropylcellulose) (HPC) 100 % of control and 107 % of control | dose: 400.0 mg/kg/injection, schedule: Q04DX003 (ip), vehicle: Klucel (hydroxypropylcellulose) (HPC) 100 % of control and 109 % of control

COc1cc(N=Nc2ccccc2)cc(/C=N\NC(=S)Nc2ccccc2)c1O
inactive: [1] 91 % of control | [2] 94 % of control

CS(=O)(=O)CCCCCCCCCCS(C)(=O)=O
inactive: dose: 100.0 mg/kg/injection, schedule: Q01DX001 (ip), vehicle: saline 95 % of control | dose: 200.0 mg/kg/injection, schedule: Q01DX001 (ip), vehicle: saline 100 % of control | dose: 400.0 mg/kg/injection, schedule: Q01DX001 (ip), vehicle: saline 93 % of control

CC(=O)Nc1c2ccccc2nc2ccccc12
inactive: [1] 95 % of control | [2] 91 % of control | [3] 94 % of control

CC(C(=O)c1cc(Cl)cc(Cl)c1O)C1(O)C(=O)Nc2ccccc21 (stereo unspecified)
inactive: [4] 107 % of control | [5] 100 % of control | [6] 99 % of control
